Here are results for 6 molecules from patent publication US20090035287A1, “ATRIAL NATRIURETIC PEPTIDE (ANP) SPLICE VARIANTS AND METHODS OF USING SAME” (priority 2005, published 2009).

Bridge positions count the residues as written; N and C are the ends. Ends that are not written are not given here.

In test [1] the test system is spontaneously hypertensive rats (SHR). The test is described as follows: Renal and cardiovascular effects in anesthetized spontaneously hypertensive rats, 30-min intravenous infusion. It is filed as in vivo, rat. Conditions: for heart rate change: i.v. 30-min infusion. The protocol:
The assay was performed with anesthetized spontaneously hypertensive rats (SHR) following intravenous administration of the various ANP-proteins by a 30-min infusion.
Male Wistar-Okamoto derived spontaneously hypertensive rats (SHR) provided by National Laboratory Animal Center were used. Space allocation for 6 rats was 45×23×15 cm. All animals were maintained in a controlled temperature (23° C.-24° C.) and humidity (60%-70%) environment with 12 hours light dark cycles for at least one week in MDS Pharma Services—Taiwan Laboratory prior to use. Free access to standard lab chow (Laboratory Rodent Diet MF-18; Oriental Yeast Co., Ltd. Japan) and RO water was granted. All aspects of this work including housing, experimentation and disposal of animals were performed in general accordance with the Guide for the Care and Use of Laboratory Animals (National Academy Press, Washington, D.C., 1996).
Groups of 5 male rats (SHR) weighing 250-300 g were employed. Rats were anaesthetized with Inactin (120 mg/kg i.p.). The left carotid artery, jugular vein, and bladder were cannulated with polyethylene (PE50) catheters. The arterial cannula was connected via a Statham (P 23×L) pressure transducer to a NEC/San-Ei Type 366 polygraph for direct mean arterial blood pressure measurements. Heart rate was derived from pulse pressure signals and monitored on a Data Acquisition and Analytic System (Power Lab 8/SP, AD Instruments, Australia). The body temperature was kept at 37° C. using a thermostat-controlled hot plate. The animals were primed with 1 ml 2.5% dextrose+0.45% NaCl intravenously, followed by continuous infusion of the same solution at a rate of 2.4 ml/hr with an infusion pump throughout the experiments. After an equilibration period of 30 min, a 30-min control urine sample was collected. Test compounds were dissolved in 2.5% dextrose+0.45% NaCl and delivered by infusion for 30 min at 2.4 ml/hr. […] The infusion rate was 2.4 ml/hr. Urine samples were collected through the catheter during infusion of peptides and in the two 30-min post-peptide periods. Urinary Na^+ concentration was measured with an atomic absorption spectrometer. All values represent mean±SEM and Dunnett's test was applied for comparison between corresponding time points for each drug-treated and control groups. Differences were considered significant at P<0.05.

The target of test [2] is T1, membrane-bound guanylyl cyclase (Rattus norvegicus, UniProt P18910).
T1 construct: from tissue; host or cells: lung of Wistar rats (membrane preparation)
T1 sequence (P18910 29-1057): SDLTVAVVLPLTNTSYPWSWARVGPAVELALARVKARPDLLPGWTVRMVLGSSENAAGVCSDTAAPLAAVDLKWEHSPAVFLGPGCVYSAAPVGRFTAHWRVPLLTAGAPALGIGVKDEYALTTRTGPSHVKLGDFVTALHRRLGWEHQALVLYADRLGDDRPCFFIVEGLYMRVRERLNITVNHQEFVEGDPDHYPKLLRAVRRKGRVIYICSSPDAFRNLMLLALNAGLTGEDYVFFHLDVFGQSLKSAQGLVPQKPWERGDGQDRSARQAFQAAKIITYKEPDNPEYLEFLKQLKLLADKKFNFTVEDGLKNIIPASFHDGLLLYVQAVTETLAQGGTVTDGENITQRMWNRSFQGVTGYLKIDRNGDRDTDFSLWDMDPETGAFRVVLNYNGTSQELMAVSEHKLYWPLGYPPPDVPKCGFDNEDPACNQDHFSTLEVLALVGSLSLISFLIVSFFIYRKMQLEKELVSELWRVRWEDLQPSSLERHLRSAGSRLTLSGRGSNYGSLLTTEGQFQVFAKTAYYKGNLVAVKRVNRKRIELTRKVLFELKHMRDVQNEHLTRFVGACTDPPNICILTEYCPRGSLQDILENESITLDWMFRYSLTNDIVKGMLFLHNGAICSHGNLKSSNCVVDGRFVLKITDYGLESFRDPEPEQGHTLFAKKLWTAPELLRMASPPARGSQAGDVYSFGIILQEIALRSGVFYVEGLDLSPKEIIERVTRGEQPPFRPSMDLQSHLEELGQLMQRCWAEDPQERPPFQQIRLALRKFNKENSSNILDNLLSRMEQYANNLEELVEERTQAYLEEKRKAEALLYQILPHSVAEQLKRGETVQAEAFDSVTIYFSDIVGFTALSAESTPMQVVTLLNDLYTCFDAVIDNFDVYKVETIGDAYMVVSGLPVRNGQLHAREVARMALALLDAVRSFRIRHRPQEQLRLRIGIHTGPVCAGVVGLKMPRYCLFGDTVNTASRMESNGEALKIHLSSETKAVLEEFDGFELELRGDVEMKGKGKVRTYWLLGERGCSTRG
The test is described as follows: cGMP accumulation after activation of membrane-bound guanylyl cyclase in isolated rat lung membranes. It is filed as biochemical. As to the method: The agonist-like activity of the ANP variant peptides was evaluated by in vitro assays designed to measure cGMP accumulation after activation of membrane-bound guanylyl cyclase. Guanylyl cyclases (GC) are a family of enzymes (EC 4.6.1.2) that catalyse the formation of the second messenger cyclic GMP (cGMP) from GTP. Activation of GCs leads to an increase in the concentration of the intracellular messenger molecule cGMP. GCs are subdivided into soluble GCs and GCs that are membrane-bound and linked to a receptor. Activation occurs through binding of nitric oxide (NO) and peptide hormones, respectively. Six different isoforms of membrane-bound GC (GC-A, GC-B, GC-C, GC-D, GC-E and GC-F) are known. The guanylyl cyclase A (GC-A) isoform acts as the receptor for the natriuretic peptides ANP and BNP.
As ANP is known to stimulate GC-A, the effect of known and variant ANP peptides on guanlyl cyclase was examined. The procedure employed was essentially as described in Glover V, et al., 1995 Life Sci. 57(22): 2073-2079; Nashida T, Imai A and Shimomura H (2000), Mol Cell Biochem. 208(1-2): 27-35. Briefly, membrane-bound guanylyl cyclase isolated from the lung of Wistar rats was used. […] The reaction was terminated by addition of 1 N HCl and the supernatant evaluated for cGMP level by EIA. Enzyme activity was determined spectrophotometrically by measuring the formation of cGMP. […]

Test [3] concerns the target T2, membrane-bound guanylyl cyclase isolated from the lung of Wistar rats (rat, UniProt P18910 29-1057).
T2 sequence (looked up): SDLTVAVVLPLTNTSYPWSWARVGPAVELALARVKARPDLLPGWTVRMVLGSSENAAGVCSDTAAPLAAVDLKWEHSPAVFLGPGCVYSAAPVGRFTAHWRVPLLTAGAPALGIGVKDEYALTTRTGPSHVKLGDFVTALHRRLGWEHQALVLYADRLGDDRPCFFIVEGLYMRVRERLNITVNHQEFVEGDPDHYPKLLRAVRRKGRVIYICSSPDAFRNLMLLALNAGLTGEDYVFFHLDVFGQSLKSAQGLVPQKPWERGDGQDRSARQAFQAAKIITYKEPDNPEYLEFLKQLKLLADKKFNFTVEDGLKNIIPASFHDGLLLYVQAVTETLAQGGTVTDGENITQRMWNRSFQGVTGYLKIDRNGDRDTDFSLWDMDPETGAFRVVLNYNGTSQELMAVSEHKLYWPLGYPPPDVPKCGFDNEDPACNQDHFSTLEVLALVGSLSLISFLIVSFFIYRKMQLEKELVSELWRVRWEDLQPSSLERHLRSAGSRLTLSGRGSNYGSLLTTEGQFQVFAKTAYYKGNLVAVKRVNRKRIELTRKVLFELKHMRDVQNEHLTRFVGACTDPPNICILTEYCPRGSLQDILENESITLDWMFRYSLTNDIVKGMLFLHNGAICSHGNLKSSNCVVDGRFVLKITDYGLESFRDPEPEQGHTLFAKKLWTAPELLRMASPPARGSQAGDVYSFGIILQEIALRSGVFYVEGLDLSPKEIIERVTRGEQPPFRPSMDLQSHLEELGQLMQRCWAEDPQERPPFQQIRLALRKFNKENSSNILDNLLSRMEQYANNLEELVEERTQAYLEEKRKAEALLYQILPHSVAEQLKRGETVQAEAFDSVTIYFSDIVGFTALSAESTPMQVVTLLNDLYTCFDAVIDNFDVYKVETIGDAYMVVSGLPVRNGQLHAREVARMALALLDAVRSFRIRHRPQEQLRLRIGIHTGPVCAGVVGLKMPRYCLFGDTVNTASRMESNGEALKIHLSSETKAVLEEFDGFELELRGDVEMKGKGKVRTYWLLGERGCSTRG
In words: cell-based or functional assay.

Where [4] appears, read: i.v. infusion 1 μg/kg/min × 30 min.
[5] abbreviates: i.v. infusion 3 μg/kg/min × 30 min.
The mark [6] stands for this setting: i.v. infusion 1 and 3 μg/kg/min × 30 min.

As for `CC[C@H](C)[C@@H]1NC(=O)[C@H](CCCNC(=N)N)NC(=O)[C@H](CC(=O)O)NC(=O)[C@H](CCSC)NC(=O)[C@H](CCCNC(=N)N)NC(=O)CNC(=O)CNC(=O)[C@H](Cc2ccccc2)NC(=O)[C@@H](NC(=O)[C@H](CO)NC(=O)[C@H](CO)NC(=O)[C@H](CCCNC(=N)N)NC(=O)[C@H](CCCNC(=N)N)NC(=O)[C@H](CC(C)C)NC(=O)[C@@H](N)CO)CSSC[C@@H](C(=O)N[C@@H](CC(N)=O)C(=O)N[C@@H](CO)C(=O)N[C@@H](Cc2ccccc2)C(=O)N[C@@H](CCCNC(=N)N)C(=O)N[C@@H](Cc2ccc(O)cc2)C(=O)O)NC(=O)CNC(=O)[C@H](CC(C)C)NC(=O)CNC(=O)[C@H](CO)NC(=O)[C@H](CCC(N)=O)NC(=O)[C@H](C)NC(=O)CNC1=O` [ANP-28, reference compound], the heart rate change result in test [1] (listed as ANP28) is given as “decrease in heart rate”.
Regarding `CC[C@H](C)[C@@H]1NC(=O)[C@H](CCCNC(=N)N)NC(=O)[C@H](CC(=O)O)NC(=O)[C@H](CCSC)NC(=O)[C@H](CCCNC(=N)N)NC(=O)CNC(=O)CNC(=O)[C@H](Cc2ccccc2)NC(=O)[C@@H](NC(=O)[C@H](CO)NC(=O)[C@H](CO)NC(=O)[C@H](CCCNC(=N)N)NC(=O)[C@H](CCCNC(=N)N)NC(=O)[C@H](CC(C)C)NC(=O)[C@@H](N)CO)CSSC[C@@H](C(=O)N[C@@H](CC(N)=O)C(=O)N[C@@H](CO)C(=O)N[C@@H](Cc2ccccc2)C(=O)N[C@@H](CCCNC(=N)N)C(=O)N[C@@H](Cc2ccc(O)cc2)C(=O)O)NC(=O)CNC(=O)[C@H](CC(C)C)NC(=O)CNC(=O)[C@H](CO)NC(=O)[C@H](CCC(N)=O)NC(=O)[C@H](C)NC(=O)CNC1=O` [Carperitide, reference compound], in test [1], the heart rate change result is recorded as “less pronounced”.
For the molecule “SLRRSSCFGGRMDRIGAQSGLGCNSFRELNWLRPLMEQPLLSLME (disulfide 7-23) [ANP-45]”, the “cGMP accumulation, agonist activity in words” value in test [2] is “level comparable to the known control molecules”. Besides, the heart rate change result in test [1] is listed as “decrease in heart rate”. In test [1] (setting [4]), the “absolute change of mean arterial pressure (MAP-infusion minus MAP-baseline)” value is reported as −28 mmHg. Besides, in test [1] (setting [5]), the “absolute change of mean arterial pressure (MAP-infusion minus MAP-baseline)” value is −37 mmHg and the “urine volume (diuresis)” value is “pronounced diuresis, similar in magnitude to that of Carperitide”. In test [1] (setting [6]), the “urinary sodium excretion (natriuresis)” value was “dose-dependent increase in urinary sodium excretion” and the “urine volume (diuresis), dose dependence” value was “dose-dependent increase in urine volume”.
“TAPRSLRRSSCFGGRMDRIGAQSGLGCNSFRELNWLRPLMEQPLLSLME (disulfide 11-27) [ANP-49]”: the “cGMP accumulation, agonist activity in words” value in test [2] is listed as “level comparable to the known control molecules”. Moreover, the heart rate change result in test [1] is reported as “decrease in heart rate”. Further, the “absolute change of mean arterial pressure (MAP-infusion minus MAP-baseline)” value is −1 mmHg in test [1] (setting [4]) and −23 mmHg in test [1] (setting [5]). The entries for the “urine volume (diuresis)” value in test [1] (setting [4]) and in test [1] (setting [5]) were “such effect was not observed” and “even higher increase in urine volume relative to Carperitide”, respectively.
In the case of SLRRSSCFGGRMDRIGAQSGLGCNSFRELNWLRPLMEQPLLSLME (disulfide 7-23) [ANP-45 (variant)], the “cGMP accumulation after activation of membrane-bound guanylyl cyclase (EIA), EC50” value in test [3] was found to be 86.3 nM.
The same measure, in the same setting: the figure for TAPRSLRRSSCFGGRMDRIGAQSGLGCNSFRELNWLRPLMEQPLLSLME (disulfide 11-27) [ANP-49 (variant)] is 138 nM.
